Earlier results in patent US6440438B2, “Covering impregnated with insecticide” (Protec Health International Limited, priority 1997, dated 2002).

How the values were obtained:
[1] = placed directly in contact with the skin
[2] = not given; remark: listed apart in the source

For `CC1(C)C(C=C(Cl)Cl)C1C(=O)OCc1cccc(Oc2ccccc2)c1` (stereo not shown) [Permethrin], the “proportion of the chemical absorbed by the skin” value [1] is given as “about 0.5%”, the “period within which skin sensations (numbing, burning, tingling) usually subside” value (contact with permethrin, reversible) is given as “twelve” and the toxicity to humans (in vivo) is given as “not considered toxic”. The solubility in water [2] was “does not dissolve in water”.
